Measured values reported in ChEMBL document CHEMBL1201862, “PubChem BioAssay data set” (2004).
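96-well plates; 48 h exposure; 5 concentrations. Endpoints by linear interpolation between flanking doses. Not reached: highest tested concentration assigned. Abbreviation: GI50, concentration required for 50% inhibition of growth.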 The source made the active and inactive calls. Rule as the data show it: active = GI50 up to about 1.1 µM and inactive = higher.

What was measured:
Assay in all cases: DTP human tumour cell line panel, 48 h
HT-29 = system: HT-29
U-251 = system: U-251
Hs-578T = system: Hs-578T
SK-MEL-5 = system: SK-MEL-5
NCI-H226 = system: NCI-H226
EKVX = system: EKVX
MDA-N = system: MDA-N
A498 = system: A498
KM12 = system: KM12
OVCAR-8 = system: OVCAR-8
M14 = system: M14
SNB-75 = system: SNB-75
NCI-H522 = system: NCI-H522
MOLT-4 = system: MOLT-4
HCT-116 = system: HCT-116
RXF 393 = system: RXF 393
SK-MEL-2 = system: SK-MEL-2
PC-3 = system: PC-3
UACC-257 = system: UACC-257
NCI-H460 = system: NCI-H460

Row | SMILES | GI50 (HT-29) | GI50 (U-251) | GI50 (Hs-578T) | GI50 (SK-MEL-5) | GI50 (NCI-H226) | GI50 (EKVX) | GI50 (MDA-N) | GI50 (A498) | GI50 (KM12) | GI50 (OVCAR-8) | GI50 (M14) | GI50 (SNB-75) | GI50 (NCI-H522) | GI50 (MOLT-4) | GI50 (HCT-116) | GI50 (RXF 393) | GI50 (SK-MEL-2) | GI50 (PC-3) | GI50 (UACC-257) | GI50 (NCI-H460)
1 | O=[N+]([O-])/C=C(\CS(=O)(=O)c1ccccc1)c1ccc2c(c1)OCO2 | 53.1 µM (inactive) | 88.5 µM (inactive) | 38.1 µM (inactive) | 45.1 µM (inactive) | 30 µM (inactive) | > 100 µM (inactive) | 39.2 µM (inactive) | 31.8 µM (inactive) | 28.4 µM (inactive) | 60.1 µM (inactive) | 20.8 µM (inactive) | > 100 µM (inactive) | 21.7 µM (inactive) | 67.9 µM (inactive) | 34.8 µM (inactive) | 64.3 µM (inactive) |  |  |  | 
2 | COc1c(C)c(C/C=C(\C)CC/C=C(\C)CC/C=C(\C)CCC=C(C)C)c(OC)c2ccccc12 | > 100 µM (inactive) | > 100 µM (inactive) | > 100 µM (inactive) | > 100 µM (inactive) |  | > 100 µM (inactive) | > 100 µM (inactive) |  | > 100 µM (inactive) | > 100 µM (inactive) | > 100 µM (inactive) | > 100 µM (inactive) | > 100 µM (inactive) | > 100 µM (inactive) | > 100 µM (inactive) | > 100 µM (inactive) | > 100 µM (inactive) | > 100 µM (inactive) | > 100 µM (inactive) | 39.7 µM (inactive)
3 | COc1ccc2c(=O)cc(-c3ccc(OC)c(OC)c3OC)oc2c1 | 98.9 µM (inactive) | > 100 µM (inactive) | 47.6 µM (inactive) | 49 µM (inactive) | > 65.9 µM (inactive) | > 64.3 µM (inactive) | 95.3 µM (inactive) |  | > 43.7 µM (inactive) | > 100 µM (inactive) | > 100 µM (inactive) | 23.4 µM (inactive) | > 39.8 µM (inactive) | 55.5 µM (inactive) | > 100 µM (inactive) | > 80.9 µM (inactive) |  | 60.4 µM (inactive) | > 100 µM (inactive) | 99.3 µM (inactive)
4 | NC(=O)C(=CN1CC(=O)NC1=S)C(N)=O | > 100 µM (inactive) | > 100 µM (inactive) |  | > 100 µM (inactive) | > 100 µM (inactive) | > 100 µM (inactive) | > 100 µM (inactive) | > 100 µM (inactive) | > 100 µM (inactive) | > 100 µM (inactive) | > 100 µM (inactive) | > 100 µM (inactive) |  | > 100 µM (inactive) | > 100 µM (inactive) | > 100 µM (inactive) | > 100 µM (inactive) |  | > 100 µM (inactive) | > 100 µM (inactive)
5 | CCc1ccc(Nc2cc(=O)[nH]c(SCc3ccccc3)n2)cc1 | > 100 µM (inactive) |  | > 100 µM (inactive) | 78 µM (inactive) | > 100 µM (inactive) | 57.7 µM (inactive) | > 100 µM (inactive) | > 100 µM (inactive) | > 100 µM (inactive) | 44.9 µM (inactive) | > 100 µM (inactive) | 30.3 µM (inactive) | > 100 µM (inactive) | > 100 µM (inactive) | 80.7 µM (inactive) | > 100 µM (inactive) | > 100 µM (inactive) |  | > 100 µM (inactive) | 
6 | CCCc1nc2c(n1CC)C(=O)c1ccccc1C2=O | 18.5 µM (inactive) | 59.3 µM (inactive) | > 100 µM (inactive) | 29.8 µM (inactive) | 56 µM (inactive) |  | 20 µM (inactive) |  | 40.3 µM (inactive) |  | 33.2 µM (inactive) | 24.8 µM (inactive) | 24.3 µM (inactive) | 17 µM (inactive) | 39.3 µM (inactive) | 26.9 µM (inactive) |  | 34.2 µM (inactive) | 18 µM (inactive) | 37.2 µM (inactive)
7 | COC(=O)C1C(OC(=O)C(Cl)(c2ccccc2)c2ccccc2)CC2CCC1N2C (stereo unspecified) | > 100 µM (inactive) | > 100 µM (inactive) |  | > 100 µM (inactive) | > 100 µM (inactive) | > 100 µM (inactive) | > 100 µM (inactive) |  | > 100 µM (inactive) | > 100 µM (inactive) | 45.1 µM (inactive) | > 100 µM (inactive) | > 100 µM (inactive) | > 100 µM (inactive) | > 100 µM (inactive) | > 100 µM (inactive) |  | > 100 µM (inactive) | > 100 µM (inactive) | 
8 | Cc1ccc(-c2c(C#N)c(S)n(NS(=O)(=O)c3ccccc3)c(=O)c2C#N)cc1 |  | 24.8 µM (inactive) |  | 25 µM (inactive) | 17.9 µM (inactive) | 31 µM (inactive) | 29.7 µM (inactive) | 21.2 µM (inactive) | 28 µM (inactive) | 21.2 µM (inactive) | 29.9 µM (inactive) | 42.2 µM (inactive) | 19.5 µM (inactive) | 15.9 µM (inactive) | 26.9 µM (inactive) | 41.1 µM (inactive) | 43.8 µM (inactive) | 23.5 µM (inactive) | 61 µM (inactive) | 15.6 µM (inactive)
9 | CCOC(=O)CON=c1c2ccccc2ccc2ccccc12 | > 100 µM (inactive) | > 100 µM (inactive) | > 100 µM (inactive) | > 100 µM (inactive) | > 100 µM (inactive) | > 100 µM (inactive) | > 100 µM (inactive) |  | > 100 µM (inactive) | > 100 µM (inactive) | > 100 µM (inactive) | > 100 µM (inactive) |  | > 100 µM (inactive) | > 100 µM (inactive) | > 100 µM (inactive) | > 100 µM (inactive) | > 100 µM (inactive) | > 100 µM (inactive) | > 100 µM (inactive)
10 | COc1cc(C2SCC(=O)N2Cc2ccccc2)cc(OC)c1OC (stereo unspecified) | > 100 µM (inactive) | > 100 µM (inactive) | > 100 µM (inactive) | > 100 µM (inactive) | > 100 µM (inactive) | > 100 µM (inactive) | > 100 µM (inactive) |  | > 100 µM (inactive) | > 100 µM (inactive) | > 100 µM (inactive) |  | 90.4 µM (inactive) | > 100 µM (inactive) | > 100 µM (inactive) |  | > 100 µM (inactive) | > 100 µM (inactive) | > 100 µM (inactive) | > 100 µM (inactive)
11 | CCCCCc1c2nc(c(CCCCC)c3ccc([nH]3)c(CCCCC)c3nc(c(CCCCC)c4ccc1[nH]4)C=C3)C=C2 | > 100 µM (inactive) | > 100 µM (inactive) | > 100 µM (inactive) | > 100 µM (inactive) |  | > 100 µM (inactive) | > 100 µM (inactive) |  | > 100 µM (inactive) | > 100 µM (inactive) | > 100 µM (inactive) | > 100 µM (inactive) | > 100 µM (inactive) | > 100 µM (inactive) | > 100 µM (inactive) |  | > 100 µM (inactive) | > 100 µM (inactive) | > 100 µM (inactive) | > 100 µM (inactive)
12 | COc1cc2cc(C(=O)N3CC(COS(C)(=O)=O)c4ccc(O)cc43)[nH]c2c(OC)c1OC (stereo unspecified) | < 0.0001 µM (active) | < 0.0001 µM (active) | 0.000168 µM (active) | < 0.0001 µM (active) | 0.000109 µM (active) | 0.00082 µM (active) | < 0.01 µM (active) | < 0.01 µM (active) | 0.000169 µM (active) | < 0.0001 µM (active) | < 0.0001 µM (active) | 0.000172 µM (active) | < 0.0001 µM (active) | < 0.0001 µM (active) | < 0.0001 µM (active) | < 0.0001 µM (active) | < 0.0001 µM (active) |  | 0.000537 µM (active) | 
